This note sets out measurements from PubChem BioAssay (NCI).

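Growth conditions: 96-well plates. Treatment: test compound, 48 hours, 5 concentrations. Analysis: linear interpolation between bracketing concentrations; unreached endpoints set to highest concentration. GI50 is the concentration that inhibits growth by half. At the TGI there is no net growth.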

Among the test systems are 786-0 renal; DLD-1 colon; HT29 colon; K-562 leukemia; KM12 colon; M19-MEL melanoma; OVCAR-8 ovarian; SW-620 colon; NCI-H23 lung; HS 578T breast.
Common to all, as to assay: NCI tumour cell line growth inhibition, 48 h

As for `COc1cc(/C=N\O[Si](C)(C)C(C)(C)C)ccc1O[Si](C)(C)C(C)(C)C`, the TGI in the assay with 786-0 renal, with DLD-1 colon, in the assay with HT29 colon, with K-562 leukemia, with KM12 colon and in the assay with M19-MEL melanoma was over 100 µM throughout. Moreover, the TGI in the assay with OVCAR-8 ovarian and with SW-620 colon was over 100 µM in each case.
On to `COc1cc(-c2nnc3n2NC=C(C(=O)O)S3)cc(OC)c1OC`, for which the TGI is over 76.3 µM in the assay with 786-0 renal; over 79.9 µM in the assay on DLD-1 colon; over 100 µM in the assay with HT29 colon; over 63 µM in the assay on K-562 leukemia; over 100 µM in the assay on KM12 colon; over 100 µM in the assay on M19-MEL melanoma. Moreover, the figures for the TGI with NCI-H23 lung, with OVCAR-8 ovarian and in the assay on SW-620 colon were over 100 µM, over 100 µM and over 62 µM, respectively.
For the molecule `CCOC(=O)C(C)(c1c(C)[nH]c2ccccc12)c1c(C)[nH]c2ccccc12`, the TGI in the assay on 786-0 renal stood at 43 µM; with DLD-1 colon it was 75.9 µM; in the assay on HT29 colon it was 30.3 µM; with K-562 leukemia, 42.4 µM; with KM12 colon it was 33.2 µM; in the assay with NCI-H23 lung it was 37.5 µM. The TGI turned out to be 81.7 µM in the assay on OVCAR-8 ovarian and 40.8 µM in the assay on SW-620 colon.
Regarding `NC(CCc1ncc(C(=O)O)s1)C(=O)O` (configuration not stated), the TGI in the assay with 786-0 renal, in the assay on DLD-1 colon, with HT29 colon, with K-562 leukemia, in the assay on KM12 colon and with M19-MEL melanoma was over 100 µM each time. The TGI in the assay on NCI-H23 lung, in the assay on OVCAR-8 ovarian and with SW-620 colon was over 100 µM throughout.
As for `Cc1ccc(C)c(N2C(=O)C(=O)C(c3nc4ccccc4o3)/C(=N/N)C2=O)c1` (configuration not stated), the TGI with 786-0 renal, with DLD-1 colon, with HT29 colon, with KM12 colon, with M19-MEL melanoma and with NCI-H23 lung was over 100 µM each time. In addition, the TGI in the assay on OVCAR-8 ovarian and with SW-620 colon was over 100 µM throughout.
As for `CC1CCC(C(C)(C)c2ccccc2)C(=O)C1` (configuration not stated), the TGI in the assay with 786-0 renal, in the assay on DLD-1 colon, in the assay on HT29 colon, with K-562 leukemia, in the assay on KM12 colon and in the assay on M19-MEL melanoma was over 100 µM each time. In addition, the TGI in the assay with OVCAR-8 ovarian and in the assay on SW-620 colon was over 100 µM throughout.
As for `NC(=O)c1cn(Cc2ccccc2)c(=O)n1Cc1ccccc1`, the TGI in the assay on 786-0 renal, in the assay with DLD-1 colon, in the assay with HT29 colon, in the assay on K-562 leukemia, in the assay with KM12 colon and with M19-MEL melanoma was over 100 µM in each case. For the same molecule, the TGI in the assay with NCI-H23 lung, with OVCAR-8 ovarian and in the assay with SW-620 colon was over 100 µM throughout.
Take `CCOc1ccc(N=Cc2c3ccccc3nc3ccccc23)cc1`: the TGI was over 100 µM in the assay on 786-0 renal; over 100 µM with DLD-1 colon; over 100 µM with HT29 colon; over 100 µM in the assay on K-562 leukemia; 84.7 µM with KM12 colon; over 100 µM with M19-MEL melanoma. Also, the TGI in the assay with NCI-H23 lung, with OVCAR-8 ovarian and in the assay with SW-620 colon was over 100 µM throughout.
For the molecule `O=C1c2ccc3c4ccccc4n(-c4ccccc4)c3c2C(=O)N1c1ccc(Cl)cc1`, the TGI in the assay on 786-0 renal, in the assay with DLD-1 colon, with HT29 colon, in the assay with K-562 leukemia, in the assay on KM12 colon and in the assay with M19-MEL melanoma was over 100 µM throughout. Also, the TGI in the assay with NCI-H23 lung is 24.4 µM; in the assay on OVCAR-8 ovarian it was over 100 µM; in the assay with SW-620 colon it was over 100 µM.
Take `CCCCCCCCCCCCCCCCCCC1=C(O)C(=O)C=C(OC)C1=O`: the TGI with 786-0 renal, in the assay with DLD-1 colon, in the assay on HT29 colon, in the assay on KM12 colon, in the assay on M19-MEL melanoma and in the assay with NCI-H23 lung was over 100 µM each time. The TGI in the assay on OVCAR-8 ovarian and in the assay on SW-620 colon was over 100 µM each time.
As to `CCOC(=O)C1=C(Nc2ccc(Br)cc2)OCC1=O`, the TGI in the assay with 786-0 renal, in the assay with DLD-1 colon, in the assay with HT29 colon, with KM12 colon, with M19-MEL melanoma and in the assay with NCI-H23 lung was over 100 µM in each case. Besides, the TGI with OVCAR-8 ovarian and in the assay on SW-620 colon was over 100 µM throughout.
Consider `C[Si](C)(C)CN1C(=O)c2ccccc2C1(O)c1ccccc1` (configuration not stated), for which the TGI in the assay on 786-0 renal, in the assay with DLD-1 colon, in the assay on HT29 colon, in the assay on K-562 leukemia, with KM12 colon and with NCI-H23 lung was over 100 µM each time. The TGI with OVCAR-8 ovarian and with SW-620 colon was over 100 µM in each case.
Consider `N#Cc1c(-c2ccco2)cc(-c2ccc(N)cc2)[nH]c1=O`, for which the TGI in the assay with 786-0 renal, with DLD-1 colon, with HT29 colon, in the assay with K-562 leukemia, in the assay with KM12 colon and in the assay on NCI-H23 lung was over 100 µM each time. Further, the TGI in the assay on OVCAR-8 ovarian and in the assay on SW-620 colon was over 100 µM throughout.
Turning to `CCC[CH2][Sn]1([CH2]CCC)[O]CC(COc2c(Cl)cc(Cl)cc2Cl)[O]1` (configuration not stated), the GI50 in the assay with 786-0 renal is 1410 nM; with DLD-1 colon, 1490 nM; with HT29 colon it was 2090 nM; in the assay with KM12 colon it was 1800 nM; in the assay on M19-MEL melanoma, 0.941 µM; with NCI-H23 lung, 1.11 µM. For the same molecule, the GI50 was 1120 nM with OVCAR-8 ovarian and 1130 nM in the assay with SW-620 colon. Also, the TGI with 786-0 renal was 2.74 µM; in the assay on DLD-1 colon, 2.95 µM; in the assay with HT29 colon, 4.19 µM; with KM12 colon it was 3.54 µM; in the assay with M19-MEL melanoma, 2.22 µM; in the assay on NCI-H23 lung, 2.69 µM. Besides, the TGI was found to be 2.37 µM with OVCAR-8 ovarian and 2.62 µM with SW-620 colon.
Regarding `CCc1cccc(C)c1NC(=O)CC1C(=O)Nc2ccccc2S1=O` (configuration not stated), the TGI in the assay on 786-0 renal, with DLD-1 colon, in the assay with HT29 colon, with K-562 leukemia, with KM12 colon and with NCI-H23 lung was over 100 µM throughout. In addition, the TGI in the assay on OVCAR-8 ovarian and in the assay with SW-620 colon was over 100 µM each time.
`CN1C(NNC(=O)c2cccnc2)=NS(=O)(=O)c2cc(Cl)ccc21`: the GI50 in the assay with 786-0 renal was over 100000 nM; in the assay on HS 578T breast, over 100000 nM; in the assay on HT29 colon, over 100000 nM; with K-562 leukemia, over 100000 nM; in the assay on KM12 colon, over 100000 nM; with NCI-H23 lung, over 100 µM. Further, the GI50 in the assay with OVCAR-8 ovarian and in the assay on SW-620 colon was over 100000 nM throughout. Further, the TGI in the assay on 786-0 renal, with HS 578T breast, in the assay with HT29 colon, in the assay with K-562 leukemia, with KM12 colon and in the assay with NCI-H23 lung was over 100 µM each time. For the same molecule, the TGI with OVCAR-8 ovarian and in the assay on SW-620 colon was over 100 µM throughout.
As for `CC(Cl)CN1c2ccccc2Sc2ccc(Cl)cc21` (configuration not stated), the TGI in the assay on 786-0 renal, with HS 578T breast, in the assay with HT29 colon, with K-562 leukemia, with KM12 colon and in the assay on NCI-H23 lung was over 10 µM in each case. The TGI in the assay on OVCAR-8 ovarian and in the assay on SW-620 colon was over 10 µM in each case.
Regarding `Cc1ccc(C)c(N2C(=O)C(=O)C(c3nc4ccccc4o3)/C(=N\NC(=O)c3ccccc3O)C2=O)c1` (configuration not stated), the TGI was over 100 µM in the assay with 786-0 renal; over 100 µM with DLD-1 colon; over 100 µM with HT29 colon; 85.6 µM in the assay with K-562 leukemia; over 100 µM with M19-MEL melanoma; 28.7 µM in the assay on NCI-H23 lung. Further, the figures for the TGI in the assay with OVCAR-8 ovarian and with SW-620 colon were 76.7 µM and over 100 µM, respectively.
On to `CCc1nc(Cl)c(Cl)c(Cl)n1`, for which the TGI in the assay on 786-0 renal, with HS 578T breast, with HT29 colon, with K-562 leukemia, with KM12 colon and with NCI-H23 lung was over 100 µM in each case. In addition, the TGI with OVCAR-8 ovarian and with SW-620 colon was over 100 µM in each case.
On to `NCCCn1c2c(c3ccccc3c1=O)C(=O)c1ccccc1-2`, for which the GI50 is 119 nM in the assay on 786-0 renal; 556 nM with HS 578T breast; 128 nM in the assay on HT29 colon; 85.7 nM with K-562 leukemia; 124 nM in the assay with KM12 colon; 65.8 nM in the assay with OVCAR-8 ovarian. The GI50 with SW-620 colon is 71.3 nM. Further, the TGI is 1.01 µM in the assay on 786-0 renal; 6.25 µM in the assay on HS 578T breast; 15.4 µM in the assay on HT29 colon; 10.4 µM with K-562 leukemia; 2.65 µM in the assay with KM12 colon; 0.977 µM with NCI-H23 lung. Further, the TGI in the assay on OVCAR-8 ovarian worked out at 1.32 µM; in the assay with SW-620 colon, 5.83 µM.
Take `Cc1ccc2[c](c1)[Sn]([c]1ccccc1)([c]1ccccc1)[c]1cc(C)ccc1N2C`: the GI50 in the assay with 786-0 renal is 16200 nM; with HT29 colon, 37300 nM; in the assay with KM12 colon it was 29800 nM; in the assay on M19-MEL melanoma, 37.7 µM; in the assay with NCI-H23 lung, 41 µM; with OVCAR-8 ovarian, 57300 nM. Also, the GI50 with SW-620 colon is 18900 nM. Further, the TGI with 786-0 renal, in the assay on HT29 colon, in the assay with KM12 colon, in the assay with M19-MEL melanoma, with NCI-H23 lung and in the assay with OVCAR-8 ovarian was over 100 µM in each case. In the assay on SW-620 colon, this molecule had a TGI of 53.7 µM.
